The values below come from patent US11371055B2, “Herbicide resistance genes” (CORTEVA AGRISCIENCE LLC, priority 2005, dated 2022).

Molecules are shown by their SMILES.

One experiment deals with wildtype KY160 tobacco. Kind of experiment: Cross tolerance test, wildtype tobacco. The class given is in vivo, Nicotiana tabacum. The source says:
Two to four T0 individuals surviving high rates of 2,4-D and fluroxypyr were saved from each event and allowed to self fertilize in the greenhouse to give rise to T1 seed. The T1 seed was stratified, and sown into selection trays much like that of Arabidopsis (Example 7.4), followed by selective removal of untransformed nulls in this segregating population with 560 g ai/ha glufosinate (PAT gene selection). Survivors were transferred to individual 3-inch pots in the greenhouse. These lines provided high levels of resistance to 2,4-D in the T0 generation. Improved consistency of response is anticipated in T1 plants not having come directly from tissue culture. These plants were compared against wildtype KY160 tobacco. All plants were sprayed with a track sprayer set at 187 L/ha. The plants were sprayed from a range of 140-2240 g ac/ha 2,4-D dimethylamine salt (DMA), 70-1120 g ace/ha triclopyr or 35-560 g ae/ha fluroxypyr. All applications were formulated in water. Each treatment was replicated 2-4 times. Plants were evaluated at 3 and 14 days after treatment. Plants were assigned injury rating with respect to stunting, chlorosis, and necrosis. The T1 generation is segregating, so some variable response is expected due to difference in zygosity.

Experiment [1] concerns AAD-12 (v1) tobacco lines (pDAS1580-[1]-018.001, pDAS1580-[1]-004.001, pDAS1580-[1]-020.016). Put plainly: Field tolerance of tobacco, AAD-12 lines. The class given is in vivo, Nicotiana tabacum. How it is done: Field level tolerance trials were conducted on three AAD-12 (v1) lines (events pDAS1580-[1]-018.001, pDAS1580-[1]-004.001 and pDAS1580-[1]-020.016) and one wild-type line (KY160) at field stations in Indiana and Mississippi. Tobacco transplants were grown in the greenhouse by planting T1 seed in 72 well transplant flats (Hummert International) containing Metro 360 media according to growing conditions indicated above. The null plants were selectively removed by Liberty selection as previously described. The transplant plants were transported to the field stations and planted at either 14 or 24 inches apart using industrial vegetable planters. Drip irrigation at the Mississippi site and overhead irrigation at the Indiana site were used to keep plants growing vigorously.
The experimental design was a split plot design with 4 replications. The main plot was herbicide treatment and the sub-plot was tobacco line. The herbicide treatments were 2,4-D (dimethylamine salt) at 280, 560, 1120, 2240 and 4480 g ac/ha, triclopyr at 840 g ae/ha, fluroxypyr at 280 g ac/ha and an untreated control. Plots were one row by 25-30 ft. Herbicide treatments were applied 3-4 weeks after transplanting using compressed air backpack sprayer delivering 187 L/ha carrier volume at 130-200 kpa pressure. Visual rating of injury, growth inhibition, and epinasty were taken at 7, 14 and 21 days after treatment.

Experiment [2] concerns AAD-1 (v3) (pDAB721) T2 tobacco plants. Put plainly: Auxinic herbicide cross tolerance of stacked tobacco, AAD-1 T2. The class given is in vivo, Nicotiana tabacum. How it is done: Homozygous AAD-12 (v1) (pDAS1580) and AAD-1 (v3) (pDAB721) plants (see PCT/US2005/014737 for the latter) were both reciprocally crossed and F1 seed was collected. The F1 seed from two reciprocal crosses of each gene were stratified and treated 4 reps of each cross were treated under the same spray regimen as used for the other testing with one of the following treatments: 70, 140, 280 g ac/ha fluroxypyr (selective for the AAD-12 (v1) gene); 280, 560, 1120 g ae/ha R-dichloroprop (selective for the AAD-1 (v3) gene); or 560, 1120, 2240 g ae/ha 2,4-D DMA (to confirm 2,4-D tolerance). Homozygous T2 plants of each gene were also planted for use as controls. Plants were graded at 3 and 14 DAT.

Experiment [3] concerns AAD-12 (v1) canola events 3759(20)018.001 and 3759(18)030.001. Put plainly: Field tolerance of canola, AAD-12 events. The class given is in vivo, Brassica napus. As to the method: Field level tolerance trial was conducted on two AAD-12 (v1) events 3759(20)018.001 and 3759(18)030.001 and a wild-type canola (Nex710) in Fowler, Ind. The experimental design was a randomized complete block design with 3 replications. Herbicide treatments were 2,4-D (dimethylamine salt) at 280, 560, 1120, 2240 and 4480 g ac/ha, triclopyr at 840 g ae/ha, fluroxypyr at 280 g ae/ha and an untreated control. Within each herbicide treatment, single 20 ft row/event for event 3759(18)030.0011, 3759(18)018.001 and wild-type line (Nex710) were planted with a 4 row drill on 8 inch row spacing. Herbicide treatments were applied when canola reached the 4-6 leaf stage using compressed air backpack sprayer delivering 187 L/ha carrier volume at 130-200 kpa pressure. […]

The subject of experiment [4] is wild-type canola (Nex710). Put plainly: Field tolerance of canola, wild-type. The conditions noted are these: for % Visual Injury at 14 DAT: Wild Type (Nex710). The class given is in vivo, Brassica napus. How it is done:
Field level tolerance trial was conducted on two AAD-12 (v1) events 3759(20)018.001 and 3759(18)030.001 and a wild-type canola (Nex710) in Fowler, Ind. The experimental design was a randomized complete block design with 3 replications. Herbicide treatments were 2,4-D (dimethylamine salt) at 280, 560, 1120, 2240 and 4480 g ac/ha, triclopyr at 840 g ae/ha, fluroxypyr at 280 g ae/ha and an untreated control. Within each herbicide treatment, single 20 ft row/event for event 3759(18)030.0011, 3759(18)018.001 and wild-type line (Nex710) were planted with a 4 row drill on 8 inch row spacing. Herbicide treatments were applied when canola reached the 4-6 leaf stage using compressed air backpack sprayer delivering 187 L/ha carrier volume at 130-200 kpa pressure. Visual injury ratings were taken at 7, 14 and 21 days after application.

The mark [5] stands for this setting: pDAS1580-[1]-004.001, 280 GM AE/HA.
Setting [6] is: pDAS1580-[1]-018.001, 280 GM AE/HA.
The mark [7] stands for this setting: pDAS1580-[1]-020.016, 280 GM AE/HA.
Where [8] appears, read: AAD-12 event 3759(18)030.001, 280 GM AE/HA.
Setting [9] is: AAD-12 event 3759(20)018.001, 280 GM AE/HA.
[10] abbreviates: 2× rate of triclopyr (840 g ae/ha), 14 DAT.

Turning to `Nc1c(Cl)c(F)nc(OCC(=O)O)c1Cl` [Fluroxypyr], the “Average % Injury of Replicates 14 DAT” value was 85% in the experiment on wildtype KY160 tobacco (35 g ae/ha), 93% in the experiment with wildtype KY160 tobacco (140 g ae/ha) and 100% in the experiment on wildtype KY160 tobacco (560 g ae/ha). The average injury is recorded as 11% in experiment [1] (Fluroxypyr at 280 g ae/ha, 14 DAT) and 8% in experiment [3] (Fluroxypyr at 280 g ae/ha, 5DAT). Besides, the figures for the “Average % Injury across locations at 14 DAT” value in experiment [1] (setting [5]), in experiment [1] (setting [6]) and in experiment [1] (setting [7]) were 11%, 12% and 11%, respectively. For the same compound, the “Average % injury 14 DAT” value in experiment [2] (70 g ae/ha) stood at 40%; in experiment [2] (140 g ae/ha), 60%. Further, the “% Visual Injury at 14 DAT” value is 8 a % in experiment [3] (setting [8]), 7 a % in experiment [3] (setting [9]) and 37 ab % in experiment [4] (280 GM AE/HA). For the same compound, the visual injury in experiment [4] (Fluroxypyr at 280 g ae/ha, 14DAA) amounted to 37%.

With `O=C(O)COc1ccc(Cl)cc1Cl` [2,4-D, 2,4-dichlorophenoxyacetic acid], the average injury was 1% in experiment [1] (2,4-D at the 2× rate, 14DAT); 4% in experiment [1] (2,4-D at the 4× rate, 14DAT); 4% in experiment [1] (2,4-D at the 8× rate, 14 DAT); 2% in experiment [3] (2,4-D at the 1× rate, 14DAT); 3% in experiment [3] (2,4-D at the 2× rate, 14DAT); 2% in experiment [3] (2,4-D at the 4× rate, 14DAT). For the same compound, the “Average % Injury across locations at 14 DAT” value amounted to 0% in experiment [1] (setting [5]); 0% in experiment [1] (pDAS1580-[1]-004.001, 560 GM AE/HA); 1% in experiment [1] (pDAS1580-[1]-004.001, 1120 GM AE/HA); 4% in experiment [1] (pDAS1580-[1]-004.001, 2240 GM AE/HA); 4% in experiment [1] (pDAS1580-[1]-004.001, 4480 GM AE/HA); 0% in experiment [1] (setting [6]). Besides, the “Average % Injury across locations at 14 DAT” value came to 2% in experiment [1] (pDAS1580-[1]-018.001, 560 GM AE/HA); 2% in experiment [1] (pDAS1580-[1]-018.001, 1120 GM AE/HA); 4% in experiment [1] (pDAS1580-[1]-018.001, 2240 GM AE/HA); 4% in experiment [1] (pDAS1580-[1]-018.001, 4480 GM AE/HA); 0% in experiment [1] (setting [7]); 0% in experiment [1] (pDAS1580-[1]-020.016, 560 GM AE/HA). In addition, the “Average % Injury across locations at 14 DAT” value in experiment [1] (pDAS1580-[1]-020.016, 1120 GM AE/HA) came to 1%; in experiment [1] (pDAS1580-[1]-020.016, 2240 GM AE/HA), 4%; in experiment [1] (pDAS1580-[1]-020.016, 4480 GM AE/HA), 4%. The entries for the “Average % injury 14 DAT” value in experiment [2] (560 g ae/ha), in experiment [2] (1120 g ae/ha) and in experiment [2] (2240 g ae/ha) were 0%, 4% and 9%, respectively. Also, the “% Visual Injury at 14 DAT” value amounted to 0 b % in experiment [3] (setting [8]); 0 b % in experiment [3] (AAD-12 event 3759(18)030.001, 560 GM AE/HA); 2 ab % in experiment [3] (AAD-12 event 3759(18)030.001, 1120 GM AE/HA); 3 ab % in experiment [3] (AAD-12 event 3759(18)030.001, 2240 GM AE/HA); 0 a % in experiment [3] (setting [9]); 0 a % in experiment [3] (AAD-12 event 3759(20)018.001, 560 GM AE/HA). The “% Visual Injury at 14 DAT” value in experiment [3] (AAD-12 event 3759(20)018.001, 1120 GM AE/HA) came to 2 a %; in experiment [3] (AAD-12 event 3759(20)018.001, 2240 GM AE/HA), 3 a %; in experiment [4] (280 GM AE/HA), 0 e %; in experiment [4] (560 GM AE/HA), 15 d %; in experiment [4] (1120 GM AE/HA), 33 bc %; in experiment [4] (2240 GM AE/HA), 48 a %. In experiment [4] (2,4-D at 2240 g ae/ha (4× rate), 14DAT), the visual injury stood at 72%.

Consider `C[C@@H](Oc1ccc(Cl)cc1Cl)C(=O)O` [(R)-dichlorprop, R-2,4-dichlorophenoxypropionic acid], for which the “Average % injury 14 DAT” value in experiment [2] (280 g ae/ha) is 0%; in experiment [2] (560 g ae/ha) it was 0%; in experiment [2] (1120 g ae/ha), 3%.

As to `O=C(O)COc1nc(Cl)c(Cl)cc1Cl` [triclopyr], the “Average % Injury of Replicates 14 DAT” value in the experiment with wildtype KY160 tobacco (70 g ae/ha) is listed as 40%; in the experiment with wildtype KY160 tobacco (280 g ae/ha), 65%; with wildtype KY160 tobacco (1120 g ae/ha), 80%. In experiment [1] (setting [10]), the “average injury across the three lines” value is reported as 5%. Also, the “Average % Injury across locations at 14 DAT” value in experiment [1] (pDAS1580-[1]-004.001, 840 GM AE/HA) is 5%; in experiment [1] (pDAS1580-[1]-018.001, 840 GM AE/HA) it was 4%; in experiment [1] (pDAS1580-[1]-020.016, 840 GM AE/HA), 5%. The “average injury across the two events” value in experiment [3] (setting [10]) amounted to 6%. Further, the “% Visual Injury at 14 DAT” value is reported as 6 ab % in experiment [3] (AAD-12 event 3759(18)030.001, 840 GM AE/HA); 6 a % in experiment [3] (AAD-12 event 3759(20)018.001, 840 GM AE/HA); 25 cd % in experiment [4] (840 GM AE/HA). The visual injury in experiment [4] (setting [10]) came out at 25%.

As to `CNC.O=C(O)COc1ccc(Cl)cc1Cl` [2,4-D DMA], the “Average % Injury of Replicates 14 DAT” value is given as 45% with wildtype KY160 tobacco (140 g ae/ha), 60% with wildtype KY160 tobacco (560 g ae/ha) and 73% with wildtype KY160 tobacco (2240 g ae/ha).
